# Measurements taken from patent US20110182943A1, “METHODS OF IMMUNE OR HEMATOLOGICAL ENHANCEMENT, INHIBITING TUMOUR FORMATION OR GROWTH, AND TREATING OR PREVENTING CANCER, CANCER SYMPTOMS, OR THE SYMPTOMS OF CANCER TREATMENTS” (FONTERRA CO-OPERATIVE GROUP LIMITED, priority 2007, published 2011).
# Key:
# [1] = tested on: 4T1 tumour cells; assay: 4T1 breast cancer primary tumour growth; assay type: in vivo, Balb/c mice
# Description: Tumours were established by s.c. injection of 2×10^5 EL-4 or 2×10^4 4T1 cells into the left flank of mice, and tumour growth determined by measuring two perpendicular diameters. Animals were euthanased when tumours reached more than 1.0 cm in diameter, in accord with Animal Ethics Approval (University of Auckland). All experiments included 5 or 6 mice per treatment group, unless otherwise indicated. Paclitaxel (30 mg dissolved in 5 ml of Cremophor® EL and dehydrated alcohol) was diluted in 0.9% NaCl and administered i.p. at 30 mg/Kg.
# Groups of 6 Balb/c mice were fed the base AIN-93 diet, or the same diet substituted with 5% milk fat, representing ˜71% of the fat component of the diet. Mice were challenged subcutaneously with 2×10^4 4T1 tumour cells two weeks after being placed on the diets. The mice were monitored for tumour growth, and tumour size was measured every three days.
# [2] = Blood cell counts in 4T1 tumour-bearing mice; assay type: in vivo, Balb/c mice
# [3] = tested on: 4T1 breast cancer tumours; assay: 4T1 lung surface metastases; assay type: in vivo, Balb/c mice; conditions: day 35
# Text: Suppression of lung metastases: The 4T1 breast cancer cell line is highly metastatic and disseminates to the lung and liver. The lungs of the mice in Example 8 (day 35) were inspected for tumours and micrometastases. The mean numbers of tumours on the lung surface of untreated mice fed the control diet, paclitaxel-treated mice fed the control diet, untreated mice fed milk fat, and paclitaxel-treated mice fed milk fat were 32, 18, 22, and 10, respectively (FIG. 6).
# [4] = tested on: jejunal γ-glutamyl transpeptidase (γ-GGT); conditions: paclitaxel 30 mg/kg i.p.
# Description: The activity of jejunal γ-glutamyl transpeptidase (γ-GGT) was recorded as a separate measure of gut damage, as described previously Ziotnik et al., 2005). A segment of the jejunum (approximately 5 cm) was excised and flushed with 10 ml of PBS, and cut into two 2 cm^2 segments which were placed into 1.0 ml of 1.0% Triton X-100, 0.15 M NaCl, 100 mM Tris, pH 8.0 (Tris buffer). Twenty microlitres of a solution containing 0.3 ml of 100 mM glycyl-glycine, pH 8.0, 0.08 ml Tris buffer, 0.5 ml of 5 mM γ-glutamyl-p-nitroanilide was added to final volume of 0.9 ml. The gut slices were incubated for 10 min in a shaking water bath at 37° C., and γ-GGT activity read at 405 nm. Results were expressed as units of γ-GGT activity per cm of jejunum, where one unit is defined as the γ-GGT activity that releases 1.0 mol of p-nitroaniline in 1 h.
# To determine whether milk fat protected the gut against paclitaxel-induced damage, groups of 6 Balb/c mice were fed the base AIN-93 diet, or the same diet substituted with 5% milk fat, representing ˜71% of the fat component of the diet. Two weeks later each mouse received an intraperitoneal injection of paclitaxel (30 mg/kg body weight). One week later they were killed and the jejunum was removed.
# [5] = Body, tumour, organ and tissue weights (cachexia) in 4T1 tumour-bearing mice
# Description: Tumours were established by s.c. injection of 2×10^5 EL-4 or 2×10^4 4T1 cells into the left flank of mice, and tumour growth determined by measuring two perpendicular diameters. […] All experiments included 5 or 6 mice per treatment group, unless otherwise indicated. Paclitaxel (30 mg dissolved in 5 ml of Cremophor® EL and dehydrated alcohol) was diluted in 0.9% NaCl and administered i.p. at 30 mg/Kg. In the case of the 4T1 metastatic model of breast cancer, after the mice were euthanased at the end of experiments, the organs including lung, liver and spleen were removed and weighed.
# The mice were weighed at the start and end of the experiment. After the mice were euthanased, the tumours were excised and weighed. To determine the extent of adipose tissue and muscle wasting, epididymal adipose tissue and the left gastrocnemius muscle were dissected and weighed. The carcass weight was calculated as the difference in weight between the whole body and the tumour.
# [6] = tested on: 4T1 breast cancer tumours; assay: 4T1 liver metastases; assay type: in vivo, Balb/c mice; conditions: day 35
# Text: Suppression of liver metastases: Similarly, the livers of the above mice were inspected for tumours and micrometastases. The livers were removed, section, and stained with hematoxylin/eosin, and the numbers of metastatic nodules inside the livers were counted.
# [7] = tested on: 4T1 primary tumours; assay: 4T1 tumour angiogenesis (anti-CD31 staining); assay type: in vivo, Balb/c mice; conditions: day 35
# Description: To determine tumour vascularity, 10-μm frozen tumour sections were fixed with acetone, rinsed with PBS, blocked with 2% BSA for 2 hr, and incubated overnight with the anti-CD31 antibody MEC13.3, or an anti-CD105 mAb. They were subsequently incubated for 30 min with secondary antibodies using the VECTASTAIN Universal Quick kit (Vector Laboratories, Burlingame, Calif., USA); and developed with Sigma FAST DAB (3,3′-diaminobenzidine tetrahydrochloride) and CoCl2 enhancer tablets (Sigma), and counterstained with hematoxylin. Stained blood vessels were counted in five or six blindly chosen random fields (0.155 mm^2) at ×40 magnification, and the mean of the highest three counts was calculated. […]
# The above 4T1 primary tumours (Example 8; day 35) of untreated mice fed the control diet, paclitaxel-treated mice fed the control diet, untreated mice fed milk fat, and paclitaxel-treated mice fed milk fat were excised, sectioned, and stained with an anti-CD31 antibody to identify vascular endothelial cells so as to measure tumour angiogenesis. Blood vessels stained with the anti-CD31 mAb were counted in blindly chosen random fields to record mean vessel density (8A), or the median distance to the nearest CD31 mAb-labeled blood vessel from an array point (8B).
# [8] = paclitaxel 30 mg/kg i.p.
# Description: The jejuni from mice were fixed in 4% paraformaldehyde, embedded in paraffin, sectioned at 4 μm, and sections stained with hematoxylin-eosin. In each specimen, 20 well preserved villi were randomly selected and their lengths were measured by microscopy using an objective micrometer.
# To determine whether milk fat protected the gut against paclitaxel-induced damage, groups of 6 Balb/c mice were fed the base AIN-93 diet, or the same diet substituted with 5% milk fat, representing ˜71% of the fat component of the diet. Two weeks later each mouse received an intraperitoneal injection of paclitaxel (30 mg/kg body weight). One week later they were killed and the jejunum was removed. Paraffin-embedded sections of the jejunum of mice treated with control diet, milk fat diet, control diet plus paclitaxel, and milk fat diet plus paclitaxel were stained with hematoxylin and eosin.
# [9] = Paclitaxel-induced apoptosis in jejunal crypts (TUNEL); assay type: in vivo, Balb/c mice; conditions: paclitaxel 30 mg/kg i.p.
# Description: Tumours were excised and immediately frozen in dry ice, and stored at −70° C. for later in situ detection of apoptotic cells in tumours. Frozen serial sections of 6-μm thickness were fixed with paraformaldehyde solution (4% in PBS, pH 7.4), and permeabilized with a solution containing 0.1% Triton X-100 and 0.1% sodium citrate. They were incubated with 20 μl TUNEL reagent (In Situ apoptosis detection kit from Boehringer Mannheim, Germany) for 60 min at 37° C., and examined by fluorescence microscopy. Adjacent sections were counter-stained with haematoxylin to count the total number of cells, or the number of apoptotic cells in ten randomly selected fields (magnification of ×40). The apototic index (AI) was calculated as the number of apoptotic cells×100/total number of nucleated cells. For detection of apoptotic cells in vitro, the numbers of apoptotic and necrotic tumour cells were measured by staining with annexin-V-fluos, TUNEL, and trypan blue. For measurement of gut apoptosis, jejunal sections were stained by the TUNEL method using a DeadEnd™ Fluorometric TUNEL System (Promega, Madison, Wis., USA). Apoptotic cells in 10 randomly selected cypts were counted, and the data expressed as apoptotic bodies per crypt.
# [10] = single injection 300 mg/Kg i.p.; control diet
# Description: (§1) Groups of six C57BL/6 mice were fed an AIN93G diet or the same diet substituted with either 5%, 25% or 70% milk fat, and after 4 weeks of feeding were injected intraperitoneally with cyclophosphamide (300 mg/Kg of body weight) at day 0. The mice were killed 4, 8, and 12 days later, and tissues analyzed for the side-effects of drug treatment, as described below.
# [11] = day 4; 300 mg/Kg i.p.; irrespective of the diet fed
# Description: Cyclophosphamide, diluted in PBS, was administered i.p. at 300 mg/Kg.
# as §1
# [12] = tested on: EL-4 tumour cells; assay: EL-4 lymphoma tumour growth in mice fed experimental diets; assay type: in vivo, C57BL/6 mice
# Text: Mice were challenged subcutaneously with 2×10^5 EL-4 tumour cells two weeks after being placed on the diets. Tumour size as measured by two perpendicular diameters (in centimetres) was monitored until day 91, or until tumours reached 1 cm in diameter. Each point represents the mean tumour size with 95% confidence intervals for either 6 mice, or the number of mice indicated.
# Groups of six mice were fed a control AIN-93G diet, diets containing either 28 g Lf+ or 120 g of milk fat (AMF) per 2.4 Kg of diet, or a diet containing a combination of both Lf and milk fat. Day 0 refers to the day the mice were placed on their diets. After 2 weeks on the diets, 2×10^5 EL-4 cells were injected into the flanks of mice. Tumour size as measured by two perpendicular diameters (in centimetres) was monitored until day 56. Each point represents the mean tumour size with 95% confidence intervals for either 6 mice, or the number of mice indicated.
# Mice were challenged subcutaneously with EL-4 tumour cells two weeks after being placed on the diets. Tumour size was again measured by two perpendicular diameters (in centimetres).
# [13] = paclitaxel chemotherapy, control diet
# [14] = tumour-bearing mice, mean ± SEM, n = 6
compound,measurement,setting,value
"CCCCCC/C=C/C=C\CCCCCCCC(=O)O (single isomer, unassigned) [c-9, t-11 CLA isomer]",synergy with Lf+,[1]; 5 g per 2.4 Kg of diet,no synergy
same,effect on growth of 4T1 tumours,"[1]; 5 g per 2.4 Kg of diet, 3% of the fat component",only wealdy inhibited
CC(=O)O[C@H]1C(=O)[C@@]2(C)[C@H]([C@H](OC(=O)c3ccccc3)[C@]3(O)C[C@H](OC(=O)[C@H](O)[C@@H](NC(=O)c4ccccc4)c4ccccc4)C(C)=C1C3(C)C)[C@]1(OC(C)=O)CO[C@@H]1C[C@@H]2O [paclitaxel],reduction in RBC count compared to tumour-bearing mice fed the control diet,[2]; [13],49%
same,reduction in WBC count compared to tumour-bearing mice fed the control diet,[2]; [13],44%
same,RBC,[2]; [14],3.21 ± 0.74^3 ×10^6/μl
same,WBC,[2]; [14],2.37 ± 0.39^3 ×10^3/μl
same,mean number of tumours on the lung surface,[3],18
same,reduction in numbers of tumours on the lung surface compared with untreated mice fed the control diet,[3],44%
same,reduction in jejunal γ-GGT activity compared to untreated control mice,[4],56%
same,reduction in lung weight compared to untreated mice fed the control diet,"[5]; day 35, tumour-bearing mice",30%
same,reduction in spleen weights compared to tumour-bearing mice fed the control diet,[5]; [13],8.5%
same,Body weight,[5]; [14],17.7 ± 1.5 g
same,Carcass body weight,[5]; [14],17.6 ± 1.4 g
same,Epididymal adipose tissue,[5]; [14],24.3 ± 6.7 mg
same,Gastrocnemius muscle,[5]; [14],101.2 ± 9.3 mg
same,Liver,[5]; [14],1210.1 ± 72.4 mg
same,Lung,[5]; [14],274.5 ± 30.6^3 mg
same,Spleen,[5]; [14],72.35 ± 8.2^3 mg
same,Tumor,[5]; [14],103.4 ± 24.1^3 mg
same,mean number of liver metastases,[6],59
same,reduction in numbers of tumours in the liver compared with untreated mice fed the control diet,[6],45%
same,increase in median distance to the nearest CD31+ vessels compared with untreated mice fed the control diet,[7],71%
same,reduction in microvessel density (CD31+ vessels) compared with untreated mice fed the control diet,[7],37%
same,appearance of jejunal villi in sections,[8]; hematoxylin and eosin,broken and flattened villi
same,reduction in average length of the villi compared with control mice,[8]; jejunum one week later,61%
same,increase in apoptotic body count per crypt compared with untreated mice,[9],6 fold
same,reduction in tumour size compared with untreated mice fed the control diet,"[1]; day 35, 5% milk fat diet, paclitaxel 30 mg/kg i.p. at ~0.5 cm",31%
O=P1(N(CCCl)CCCl)NCCCO1 (centres unmarked) [cyclophosphamide],reduction in average length of the villi compared with healthy control mice,[10],65%
same,reduction of peripheral WBC count,[11],more than 90%
sphingomyelin,delay of tumour growth in two mice,[12]; 1.2 g per 2.4 Kg of diet,~1 week
same,delay of tumour growth in two other mice,[12]; 1.2 g per 2.4 Kg of diet,~2 weeks
same,effect on tumour growth / tumorigenesis in individual mice,"[12]; groups of five mice, per 2.4 Kg of diet: 28 g Lf+, 120 g Phospholac 600, 1.2 g sphingomyelin",no appreciable affect on tumour growth of the remaining mouse
